Experimental data: US8795632B2, “Disease animal model for chronic pain” (Astellas Pharma Inc., priority 2008, dated 2014)

How the values were obtained:
[1] = tested on: reserpine repeated administration-induced muscle pressure pain threshold value reduction; experiment: Effects of drugs on reserpine repeated administration-induced reduction of muscle pressure pain threshold value; format: in vivo, rat; details: for effect on reserpine repeated administration-induced muscle pressure pain threshold value reduction / dose at which the effect was statistically significant by the index of muscle pressure pain threshold value: male rats, pregabalin, duloxetine, diclofenac oral, pramipexole subcutaneous; for effect on reserpine repeated administration-induced muscle pressure pain threshold value reduction: 5 days after final reserpine (1 mg/kg s.c. x 3 days), 30-240 min after drug; for dose at which the effect was statistically significant by the index of muscle pressure pain threshold value: 5 days after final reserpine, two-way analysis of variance and Bonferroni; for efficacy on this disease animal model (reserpine-treated mammal): summary statement, chronic muscle pain and tactile allodynia model
Method: Male Sprague-Dawley rats (Japan SLC, Hamamatsu, Japan) were used as the animal. A total of 30 rats were used for each drug. As shown in Example 1, 1 mg/kg of reserpine was repeatedly administered subcutaneously on the back of 24 rats once a day for 3 days to induce reduction of the muscle pressure pain threshold value and skin pain sensation threshold value. The other 6 rats were subjected to the test as a healthy control group without carrying out the reserpine treatment.
All of the evaluations of drug effects were carried out 5 days after the final administration of reserpine.
On the day of drug effect evaluation (5 days after the final administration of reserpine), the muscle pressure pain threshold value and skin pain sensation threshold value were firstly measured on all of the rats (24 reserpine-treated rats and 6 healthy rats). The 24 reserpine-treated rats were divided into 4 groups based on the doses of the test drug, and the muscle pressure pain threshold value and skin pain sensation threshold value were measured after 30, 60, 120 or 240 minutes of the drug or solvent administration. On the 6 healthy rats, the drug administration was not carried out, but only the measurement of muscle pressure pain threshold value and skin pain sensation threshold value was carried out.
All of the measured values were expressed as average value±standard error. Statistical significance test of the measured values between the test drug administration groups and the solvent administration group at each point of time was carried out by a two-way analysis of variance and the Bonferroni method. Probability value (P) of less than 5% was judged as statistically significant (P<0.05 was expressed as * in the graphs).

[2] = tested on: reserpine repeated administration-induced skin pain sensation threshold value reduction; experiment: Effects of drugs on reserpine repeated administration-induced reduction of skin pain sensation threshold value; format: in vivo, rat; details: male rats, pregabalin, diclofenac oral, pramipexole subcutaneous; for effect on reserpine repeated administration-induced skin pain sensation threshold value reduction: 5 days after final reserpine (1 mg/kg s.c. x 3 days), 30-240 min after drug, duloxetine; for dose at which the effect was statistically significant by the index of skin pain sensation threshold value: 5 days after final reserpine, two-way analysis of variance and Bonferroni
fibromyalgia patients = details: cited from earlier work; for pain symptom score of fibromyalgia patients in comparison with the placebo group: Non-patent References 7 to 9; for effect in the treatment of fibromyalgia patients (clinical trial): literature clinical trials

SMILES | effect on reserpine repeated administration-induced muscle pressure pain threshold value reduction [1] | dose at which the effect was statistically significant by the index of muscle pressure pain threshold value [1] [mg/kg] | efficacy on this disease animal model (reserpine-treated mammal) [1] | effect on reserpine repeated administration-induced skin pain sensation threshold value reduction [2] | dose at which the effect was statistically significant by the index of skin pain sensation threshold value [2] [mg/kg] | pain symptom score of fibromyalgia patients in comparison with the placebo group (fibromyalgia patients) | effect in the treatment of fibromyalgia patients (clinical trial) (fibromyalgia patients)
O=C(O)Cc1ccccc1Nc1c(Cl)cccc1Cl [diclofenac] | did not recover | > 10 | not effective | did not recover | > 10 | – | –
CNCC[C@H](Oc1cccc2ccccc12)c1cccs1 [duloxetine] | statistically significantly recovered | 30 | effective | showed a tendency to recover the reserpine repeated administration-induced skin pain sensation pain threshold value reduction but was not statistically significant | – | alleviates the pain symptom score of fibromyalgia patients statistically significantly | usefulness has been proved
CC(C)Cc1ccc(C(C)C(=O)O)cc1 (stereo not shown) [ibuprofen] | – | – | – | – | – | – | do not have a significant effect
COc1ccc2cc([C@H](C)C(=O)O)ccc2c1 [naproxen] | – | – | – | – | – | – | do not have a significant effect
CC(C)C[C@H](CN)CC(=O)O [pregabalin] | dose-dependently recovered | – | effective | dose-dependently recovered | 30 | alleviates the pain symptom score of fibromyalgia patients statistically significantly | usefulness has been proved
